Values quoted from earlier work, collected in patent publication US20230066502A1, “PREDICTION METHOD FOR INDICATION OF AIMED DRUG OR EQUIVALENT SUBSTANCE OF DRUG, PREDICTION APPARATUS, AND PREDICTION PROGRAM” (KARYDO THERAPEUTIX, INC., priority 2020, published 2023).

Conditions: for occurrence frequency of adverse event Blood glucose decreased / occurrence frequency of adverse event Sleep disorder: FIG. 3 example of training data, already reported adverse event-related information, cases of this adverse event / total adverse event cases for the drug; for occurrence frequency of adverse event Low blood sugar / occurrence frequency of adverse event sleepiness: FIG. 7 example of second training data calculated from FAERS adverse event data, maximum value 1

SMILES	occurrence frequency of adverse event Blood glucose decreased	occurrence frequency of adverse event Sleep disorder	occurrence frequency of adverse event Low blood sugar	occurrence frequency of adverse event sleepiness
OC[C@H]1O[C@@H](c2ccc(Cl)c(Cc3ccc(O[C@H]4CCOC4)cc3)c2)[C@H](O)[C@@H](O)[C@@H]1O [EMPA, empagliflozin]	0.141	0.007	0.12	0.01
O=C1CCc2ccc(OCCCCN3CCN(c4cccc(Cl)c4Cl)CC3)cc2N1 [aripiprazole]	0.009	0.026	0.0	0.5
